In patent publication US20220324835A1 (Nurix Therapeutics, Inc., priority 2018, published 2022) one finds IC50 and fold induction data, which are given here for ten compounds.

One may read the IC50 as the point on the concentration scale where inhibition reaches its midpoint.

The target in experiment [1] is T1, Cbl-b (Homo sapiens, UniProt Q13191). In words: Cbl-b inhibition assay (Cbl-b activity assay, FRET, Biological Example 1; 100 mM NaCl, 60 nM Src kinase). The format is biochemical. The conditions noted are these: upper bound stated in text lists; read-out: IC50 values in the Cbl-b inhibition assay of Biological Example 1. The method, boiled down: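 Steps: Src kinase phosphorylates N-terminal biotinylated Avi-tagged Cbl-b; phosphorylated Cbl-b binds Bodipy-fluorescein ubiquitin-loaded UbcH5B; streptavidin-terbium on Cbl-b sits close to the fluorescein label, producing FRET. Inhibitors block UbcH5B-Ub binding.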
T1 sequence (Q13191 36-427): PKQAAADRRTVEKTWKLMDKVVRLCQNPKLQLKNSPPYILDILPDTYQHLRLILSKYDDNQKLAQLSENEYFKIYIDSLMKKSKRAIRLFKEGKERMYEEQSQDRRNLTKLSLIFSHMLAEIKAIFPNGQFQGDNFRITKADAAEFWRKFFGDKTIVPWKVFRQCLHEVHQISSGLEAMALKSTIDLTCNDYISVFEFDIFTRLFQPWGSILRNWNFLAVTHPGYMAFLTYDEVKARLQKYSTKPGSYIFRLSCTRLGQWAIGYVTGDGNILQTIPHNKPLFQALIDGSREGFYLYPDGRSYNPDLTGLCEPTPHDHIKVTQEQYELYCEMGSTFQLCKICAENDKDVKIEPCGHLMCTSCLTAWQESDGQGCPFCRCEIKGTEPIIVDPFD

The test system of experiment [2] is T-cell. Description: IL-2 secretion from T-cells co-stimulated with anti-CD3 and anti-CD28 antibody (Biological Example 2). The format is cell-based, human. The conditions noted are these: Homo sapiens, T-cell, primary human total T-cells, baseline = anti-CD3/anti-CD28 stimulated cells without inhibitor, read-out: IL-2 secretion, Anti-CD3/Anti-CD28 stimulation, fold change over baseline; for fold induction at 0.3 µM: 0.3 μM compound; for fold induction at 1 µM: 1 μM compound; for fold induction at 4 µM: 4 μM compound. In short, it runs like this:
(§1)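 Values are fold-change over baseline: readings (IL-2 release, CD25 staining) from inhibitor-treated T-cells divided against untreated cells […]. No detailed procedure stated.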

Experiment [3] relates to T-cell. In words: CD25 cell surface staining on T-cells co-stimulated with anti-CD3 and anti-CD28 antibody (Biological Example 2). The format is cell-based, human. The conditions noted are these: Homo sapiens, T-cell, primary human total T-cells, baseline = anti-CD3/anti-CD28 stimulated cells without inhibitor, read-out: CD25 staining, Anti-CD3/Anti-CD28 stimulation, fold change over baseline; for fold induction at 0.3 µM: 0.3 μM compound; for fold induction at 1 µM: 1 μM compound; for fold induction at 4 µM: 4 μM compound. In short, it runs like this:
as §1

The target of experiment [4] is T1, Cbl-b. In words: Cbl-b activity assay (Cbl-b inhibition assay), TR-FRET of Cbl-b interaction with UbcH5B-Ub. The format is biochemical. The conditions noted are these: assay buffer with 100 mM NaCl, 60 nM Src kinase; read-out: Cbl-b activity IC50. The method, boiled down: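 Compound-treated Cbl-b was incubated 1.5 h with Src kinase (60 nM final; 30 nM for asterisked values, which also used 50 mM instead of 100 mM NaCl), 1 mM ATP and 5 mM MgCl2. Binding to fluorescent Ub-loaded UbcH5B (C85K mutant) was then read by TR-FRET after 1 h more.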
(In general: TR-FRET usually uses a lanthanide donor and a delayed reading to cut background.)

In experiment [5] the test system is T-cell. In words: IL-2 secretion from T-cells stimulated with anti-CD3 antibody alone (Biological Example 2). Type of experiment: cell-based. The note with it: primary human total T-cells, read-out: IL-2 secretion, Anti-CD3 stimulation, fold change over baseline; for fold induction at 1 µM: 1 μM compound; for fold induction at 8 µM: 8 μM compound.
In experiment [6] the test system is T-cell. Description: CD25 cell surface staining on T-cells stimulated with anti-CD3 antibody alone (Biological Example 2). The format is cell-based. The note with it: primary human total T-cells, baseline = anti-CD3/anti-CD28 stimulated cells without inhibitor, read-out: CD25 staining, Anti-CD3 stimulation, fold change over baseline; for fold induction at 1 µM: 1 μM compound; for fold induction at 8 µM: 8 μM compound.

As to `Cn1cnnc1CC1(c2cccc(N3Cc4c(cc(CN5CC(C#N)C5)cc4C(F)(F)F)C3=O)c2)COC1` [Compound 423, 1-((2-(3-(3-((4-methyl-4H-1,2,4-triazol-3-yl)methyl)oxetan-3-yl)phenyl)-3-oxo-7-(trifluoromethyl)isoindolin-5-yl)methyl)azetidine-3-carbonitrile], the IC50 at Cbl-b [1] was at most 100 nM; at Cbl-b [4] it was under 100 nM. Also, the fold induction at 0.3 µM in the experiment with T-cell [2] fell in the range of 2.51 to 5; in the experiment with T-cell [3] it was 1.01 to 1.3. In addition, the fold induction at 1 µM with T-cell [2] fell in the range of 5 to 7.5; with T-cell [3], 1.01 to 1.3; in the experiment with T-cell [5], 0.151 to 0.2; in the experiment on T-cell [6], 0.801 to 1. The fold induction at 4 µM with T-cell [2] was over 7.5; in the experiment on T-cell [3] it was 1.31 to 1.5. Further, the fold induction at 8 µM in the experiment with T-cell [5] was over 0.201; in the experiment with T-cell [6], over 1.

Take `Cn1cnnc1CC1(c2cccc(N3Cc4c(cc(CN5CC(C)(F)C5)cc4C(F)(F)F)C3=O)c2)COC1` [Compound 424, 6-((3-fluoro-3-methylazetidin-1-yl)methyl)-2-(3-(3-((4-methyl-4H-1,2,4-triazol-3-yl)methyl)oxetan-3-yl)phenyl)-4-(trifluoromethyl)isoindolin-1-one]: the IC50 on Cbl-b [1] is at most 100 nM; on Cbl-b [4], under 100 nM. Moreover, the fold induction at 0.3 µM in the experiment with T-cell [2] was over 7.5; with T-cell [3], 1.31 to 1.5. For the same compound, the fold induction at 1 µM in the experiment with T-cell [2] is over 7.5; in the experiment on T-cell [3], 1.51 to 1.75; in the experiment on T-cell [5], over 0.201; with T-cell [6], over 1. For the same compound, the fold induction at 4 µM in the experiment on T-cell [2] is over 7.5; with T-cell [3], 1.51 to 1.75. The values for the fold induction at 8 µM in the experiment with T-cell [5] and with T-cell [6] were over 0.201 and over 1, respectively.

For `Cn1cnnc1CC1(c2cccc(N3Cc4c(cc(CN5CC(C)(C#N)C5)cc4C(F)(F)F)C3=O)c2)COC1` [Compound 425, 3-methyl-1-((2-(3-(3-((4-methyl-4H-1,2,4-triazol-3-yl)methyl)oxetan-3-yl)phenyl)-3-oxo-7-(trifluoromethyl)isoindolin-5-yl)methyl)azetidine-3-carbonitrile], the IC50 on Cbl-b [1] is at most 100 nM; at Cbl-b [4], under 100 nM. The fold induction at 0.3 µM lay in the range of 2.51 to 5 in the experiment on T-cell [2] and 1.01 to 1.3 with T-cell [3]. The fold induction at 1 µM in the experiment with T-cell [2] was over 7.5; in the experiment with T-cell [3], 1.31 to 1.5; in the experiment with T-cell [5], 0.151 to 0.2; with T-cell [6], 0.601 to 0.8. Besides, the fold induction at 4 µM with T-cell [2] is over 7.5; with T-cell [3], 1.51 to 1.75. Moreover, the figures for the fold induction at 8 µM with T-cell [5] and in the experiment with T-cell [6] were 0.051 to 0.1 and under 0.6, respectively.

`Cn1cnnc1CC1(c2cccc(N3Cc4c(cc(CN5CCCC5=O)cc4C(F)(F)F)C3=O)c2)COC1` [Compound 426, 2-(3-(3-((4-methyl-4H-1,2,4-triazol-3-yl)methyl)oxetan-3-yl)phenyl)-6-((2-oxopyrrolidin-1-yl)methyl)-4-(trifluoromethyl)isoindolin-1-one]: the IC50 is at most 100 nM on Cbl-b [1] and under 100 nM on Cbl-b [4]. The fold induction at 0.3 µM fell in the range of 1.01 to 2.5 in the experiment with T-cell [2] and 1.01 to 1.3 with T-cell [3]. Besides, the fold induction at 1 µM in the experiment with T-cell [2] was 1.01 to 2.5; in the experiment on T-cell [3] it was 1.01 to 1.3; in the experiment with T-cell [5], 0.151 to 0.2; with T-cell [6] it was over 1. Further, the fold induction at 4 µM with T-cell [2] was 2.51 to 5; in the experiment with T-cell [3], 1.01 to 1.3. Moreover, the fold induction at 8 µM in the experiment with T-cell [5] is over 0.201; in the experiment with T-cell [6], over 1.

For the compound `C[C@H]1C=CCN1Cc1cc2c(c(C(F)(F)F)c1)CN(c1cccc(C3(Cc4nncn4C)COC3)c1)C2=O` [Compound 427], the IC50 was at most 100 nM on Cbl-b [1] and under 100 nM at Cbl-b [4]. Further, the fold induction at 0.3 µM with T-cell [2] is over 7.5; with T-cell [3], 1.31 to 1.5. In addition, the fold induction at 1 µM in the experiment with T-cell [2] was over 7.5; in the experiment with T-cell [3], 1.51 to 1.75; in the experiment with T-cell [5], over 0.201; in the experiment on T-cell [6], over 1. The fold induction at 4 µM was over 7.5 in the experiment with T-cell [2] and 1.51 to 1.75 in the experiment with T-cell [3]. For the same compound, the fold induction at 8 µM was over 0.201 in the experiment on T-cell [5] and over 1 in the experiment on T-cell [6].

In the case of `Cn1cnnc1CC1(c2cccc(N3Cc4c(cc(CN5CC(C(=O)O)C5)cc4C(F)(F)F)C3=O)c2)COC1` [Compound 428], the IC50 on Cbl-b [1] is at most 100 nM; on Cbl-b [4], under 100 nM. Also, the fold induction at 0.3 µM was 1.01 to 2.5 in the experiment with T-cell [2] and 1.01 to 1.3 in the experiment on T-cell [3]. Besides, the fold induction at 1 µM in the experiment on T-cell [2] lay within 1.01 to 2.5; in the experiment on T-cell [3], 1.01 to 1.3; in the experiment with T-cell [5], 0.151 to 0.2; with T-cell [6], 0.801 to 1. Besides, the fold induction at 4 µM fell in the range of 1.01 to 2.5 in the experiment with T-cell [2] and 1.01 to 1.3 in the experiment on T-cell [3]. For the same compound, the fold induction at 8 µM with T-cell [5] is over 0.201; in the experiment with T-cell [6], over 1.

Take `CC(c1cc2c(c(C(F)(F)F)c1)CN(c1cccc(C3(Cc4nncn4C)COC3)c1)C2=O)N1CC(S(C)(=O)=O)C1` (stereo not drawn) [Compound 430, 2-(3-(3-((4-methyl-4H-1,2,4-triazol-3-yl)methyl)oxetan-3-yl)phenyl)-6-(l-(3-(methylsulfonyl)azetidin-1-yl)ethyl)-4-(trifluoromethyl)isoindolin-1-one]: the results for the IC50 on Cbl-b [1] and at Cbl-b [4] were at most 100 nM and under 100 nM, respectively. In addition, the fold induction at 0.3 µM was 1.01 to 2.5 in the experiment on T-cell [2] and 1.01 to 1.3 in the experiment on T-cell [3]. The fold induction at 1 µM with T-cell [2] was 1.01 to 2.5; in the experiment on T-cell [3], 1.01 to 1.3; in the experiment on T-cell [5] it was 0.101 to 0.15; in the experiment with T-cell [6], 0.601 to 0.8.

Consider `Cn1cnnc1CC1(c2cccc(N3Cc4c(cc(CN5CCOCC5)cc4C(F)(F)F)C3=O)c2)COC1` [Compound 431, 2-(3-{3-[(4-methyl-4H-1,2,4-triazol-3-yl)methyl]oxetan-3-yl}phenyl)-6-[(morpholin-4-yl)methyl]-4-(trifluoromethyl)-2,3-dihydro-1H-isoindol-1-one], for which the IC50 on Cbl-b [1] is at most 100 nM; at Cbl-b [4], under 100 nM. The figures for the fold induction at 0.3 µM in the experiment on T-cell [2] and with T-cell [3] were 2.51 to 5 and 1.31 to 1.5, respectively. The fold induction at 1 µM in the experiment with T-cell [2] is over 7.5; with T-cell [3], 1.31 to 1.5; in the experiment with T-cell [5] it was over 0.201; in the experiment with T-cell [6], over 1.

Take `Cn1cnnc1CC1(c2cccc(N3Cc4c(cc(CN5CCCC56COC6)cc4C(F)(F)F)C3=O)c2)COC1` [Compound 433, 2-(3-{3-[(4-methyl-4H-1,2,4-triazol-3-yl)methyl]oxetan-3-yl}phenyl)-6-({2-oxa-5-azaspiro[3,4]octan-5-yl}methyl)-4-(trifluoromethyl)-2,3-dihydro-1H-isoindol-1-one]: the IC50 on Cbl-b [1] is at most 100 nM; at Cbl-b [4], under 100 nM. Also, the figures for the fold induction at 0.3 µM in the experiment on T-cell [2] and in the experiment with T-cell [3] were 1.01 to 2.5 and 1.01 to 1.3, respectively. In addition, the fold induction at 1 µM in the experiment on T-cell [2] was in the range of 5 to 7.5; in the experiment with T-cell [3] it was 1.31 to 1.5; in the experiment with T-cell [5], 0.151 to 0.2; in the experiment with T-cell [6] it was 0.801 to 1.

On to `Cn1cnnc1CC1(c2cccc(N3Cc4c(cc(CN5CCS(=O)(=O)CC5)cc4C(F)(F)F)C3=O)c2)COC1` [Compound 434, 4-{[2-(3-{3-[(4-methyl-4H-1,2,4-triazol-3-yl)methyl]oxetan-3-yl}phenyl)-3-oxo-7-(trifluoromethyl)-2,3-dihydro-1H-isoindol-5-yl]methyl}-1λ^6-thiomorpholine-1,1-dione], for which the IC50 on Cbl-b [1] is at most 100 nM; on Cbl-b [4] it was under 100 nM. Besides, the values for the fold induction at 0.3 µM with T-cell [2] and in the experiment with T-cell [3] were 2.51 to 5 and 1.01 to 1.3, respectively. Moreover, the fold induction at 1 µM with T-cell [2] is 2.51 to 5; in the experiment on T-cell [3], 1.01 to 1.3; with T-cell [5], 0.101 to 0.15; with T-cell [6], over 1.
